According to ChEMBL document CHEMBL3244265, “Preparation and biological actions of some symmetrically N,N-disubstituted dopamines” (J Med Chem, 1978):
Calls of active or inactive are those of the source. The calls are words filed in the database; no cut-off is given here.

How the values were obtained:
[1] = tested on: Felis catus; assay: Inhibition of 2 Hz electric current-induced cardioaccelerator nerve stimulation in iv dosed cat by cardiotachometer analysis; type: functional
[2] = tested on: Felis catus; assay: Inhibition of 10 Hz electric current-induced cardioaccelerator nerve stimulation in iv dosed cat by cardiotachometer analysis; type: functional, organism-based
[3] = tested on: Felis catus; assay: Inhibition of 2 Hz electric current-induced cardioaccelerator nerve stimulation in iv dosed cat by cardiotachometer analysis in presence of 0.2 mg/kg, iv haloperidol; type: functional, organism-based; parameters: dose 0.2 mg/kg; conditions: at 0.2 mg/kg
[4] = tested on: Felis catus; assay: Inhibition of 2 Hz electric current-induced cardioaccelerator nerve stimulation in iv dosed cat by cardiotachometer analysis in presence of 2 mg/kg, iv phentolamine; type: functional, organism-based; parameters: dose 2 mg/kg; conditions: at 2 mg/kg
[5] = organism: Canis familiaris; assay: Inhibition of cardioaccelerator nerve stimulation in dog in presence of phentolamine; type: functional, organism-based; conditions: Canis lupus familiaris
[6] = tested on: Canis familiaris; assay: Induction of emesis in sc dosed dog; type: functional; conditions: Canis lupus familiaris
[7] = tested on: Canis familiaris; assay: Antagonism of apomorphine-induced emesis in sc dosed dog treated 15 mins prior to apomorphine challenge; type: functional, organism-based; conditions: Canis lupus familiaris
[8] = tested on: Canis familiaris; assay: Toxicity in dog up to 2 mg/kg, sc; type: organism-based, Canis lupus familiaris; parameters: dose 2 mg/kg, route subcutaneous; conditions: in vivo
[9] = tested on: Rattus norvegicus; assay: Induction of hyperactivity in Sprague-Dawley rat at 2.5 to 20 mg/kg, sc; type: functional, organism-based
[10] = organism: Felis catus; assay: Agonist activity at dopamine receptor in cat right atrium assessed as inhibition of cardiaccelerator nerve stimulation rate by cardiotachometer analysis; type: tissue-based; conditions: Cardiac atrium
[11] = tested on: Columba livia; assay: Induction of pecking in im dosed pigeon; type: functional, organism-based
[12] = tested on: Columba livia; assay: Antagonism of apomorphine-induced pecking in im dosed pigeon treated 15 mins prior to apomorphine challenge; type: functional
[13] = tested on: Felis catus; assay: Effect on heart rate in iv dosed cat; type: functional, organism-based
[14] = tested on: Rattus norvegicus; assay: Induction of stereotyped behaviour in Sprague-Dawley rat at 2.5 to 20 mg/kg, sc; type: functional, organism-based
[15] = tested on: Rattus norvegicus; assay: Induction of circling behaviour in Sprague-Dawley rat at 2.5 to 20 mg/kg, sc; type: functional, organism-based
[16] = tested on: Rattus norvegicus; assay: Induction of hyperactivity in Sprague-Dawley rat at 3.13 to 50 ug administered into caudate putamen; type: functional, organism-based
[17] = tested on: Rattus norvegicus; assay: Induction of stereotyped behaviour in intrastriatally dosed Sprague-Dawley rat at 3.13 to 50 ug administered into caudate putamen; type: functional, organism-based
[18] = tested on: Rattus norvegicus; assay: Induction of hyperactivity in Sprague-Dawley rat at 3.13 to 50 ug administered into nucleus accumbens; type: functional, organism-based
[19] = tested on: Rattus norvegicus; assay: Induction of stereotyped behaviour in intrastriatally dosed Sprague-Dawley rat at 3.13 to 50 ug administered into nucleus accumbens; type: functional, organism-based
[20] = tested on: Felis catus; assay: Hypotensive activity in iv dosed cat; type: functional, organism-based
[21] = tested on: Felis catus; assay: Hypotensive activity in iv dosed cat in presence of haloperidol; type: functional, organism-based
[22] = tested on: Rattus norvegicus; assay: Induction of hyperactivity in Sprague-Dawley rat at 40 mg/kg, sc pretreated for 30 mins with 0.4 mg/kg haloperidol; type: functional, organism-based
[23] = tested on: Rattus norvegicus; assay: Induction of hyperactivity in Sprague-Dawley rat at 40 mg/kg, sc pretreated for 30 mins with 5 mg/kg aceperone; type: functional, organism-based
[24] = tested on: Rattus norvegicus; assay: Induction of hyperactivity in Sprague-Dawley rat at 40 mg/kg, sc pretreated for 30 mins with 5 mg/kg propranolol; type: functional, organism-based
[25] = tested on: Rattus norvegicus; assay: Induction of hyperactivity in Sprague-Dawley rat at 40 mg/kg, sc pretreated for 18 hrs with 5 mg/kg reserpine and 6 hrs with 250 mg/kg alpha-methyl-p-tyrosine; type: functional, organism-based
[26] = tested on: Rattus norvegicus; assay: Induction of stereotyped behaviour in sc dosed Sprague-Dawley rat; type: functional, organism-based
[27] = tested on: Rattus norvegicus; assay: Induction of stereotyped behaviour in sc dosed Sprague-Dawley rat assessed as onset of action; type: functional
[28] = tested on: Rattus norvegicus; assay: Induction of stereotyped behaviour in sc dosed Sprague-Dawley rat assessed as duration of action; type: functional
[29] = tested on: Rattus norvegicus; assay: Induction of hyperactivity in Sprague-Dawley rat at 40 mg/kg, sc; type: functional, organism-based; parameters: dose 40 mg/kg
[30] = tested on: Rattus norvegicus; assay: Induction of stereotyped behaviour in sc dosed Sprague-Dawley rat pretreated for 30 mins with 0.4 mg/kg haloperidol; type: functional, organism-based; parameters: dose 0.4 mg/kg
[31] = tested on: Rattus norvegicus; assay: Induction of circling behaviour in sc dosed Sprague-Dawley rat assessed as onset of action; type: functional
[32] = tested on: Rattus norvegicus; assay: Induction of circling behaviour in sc dosed Sprague-Dawley rat assessed as duration of action; type: functional
[33] = tested on: Rattus norvegicus; assay: Induction of circling behaviour in sc dosed Sprague-Dawley rat in presence of 0.8 mg/kg haloperidol; type: functional, organism-based; parameters: dose 0.8 mg/kg
[34] = tested on: Rattus norvegicus; assay: Effect on motor function in Sprague-Dawley rat administered into caudate putamen; type: functional, organism-based
[35] = tested on: Rattus norvegicus; assay: Induction of hyperactivity in Sprague-Dawley rat administered into caudate putamen in presence of 0.2 to 0.8 mg/kg haloperidol; type: functional, organism-based
[36] = tested on: Rattus norvegicus; assay: Induction of stereotyped behaviour in Sprague-Dawley rat administered into caudate putamen in presence of 0.2 to 0.8 mg/kg haloperidol; type: functional, organism-based
[37] = tested on: Rattus norvegicus; assay: Induction of hyperactivity in Sprague-Dawley rat administered into nucleus accumbens in presence of 0.2 to 0.8 mg/kg haloperidol; type: functional, organism-based
[38] = tested on: Rattus norvegicus; assay: Induction of stereotyped behaviour in Sprague-Dawley rat administered into nucleus accumbens in presence of 0.2 to 0.8 mg/kg haloperidol; type: functional, organism-based
[39] = tested on: Rattus norvegicus; assay: Induction of circling behaviour in Sprague-Dawley rat administered into caudate putamen in presence of haloperidol; type: functional, organism-based
[40] = tested on: Rattus norvegicus; assay: Induction of circling behaviour in Sprague-Dawley rat administered into nucleus accumbens in presence of haloperidol; type: functional, organism-based

CN(C)CCc1ccc(O)c(O)c1
ED50 [1]: 0.024 µmol/kg | inhibition [2]: inactive | inhibition [3]: inactive | inhibition [4]: inactive | inhibition [5]: inactive | ED50 [6]: inactive | inhibition [7]: inactive | Activity [8]: Non-toxic | Activity [9]: inactive | ED50 [10]: 0.07 µM | Activity [11]: inactive | ED50 [12]: 9.7 µmol/kg | Activity [13]: inactive | Activity [14]: inactive | Activity [15]: inactive | Activity [16]: inactive | Activity [17]: inactive | Activity [18]: inactive | Activity [19]: inactive

CCCN(CCC)CCc1ccc(O)c(O)c1
ED50 [1]: 0.068 µmol/kg | inhibition [2]: inactive | inhibition [3]: inactive | inhibition [4]: Active | Activity [20]: Active | Activity [21]: inactive | ED50 [6]: 1 mg/kg | Activity [22]: inactive | Activity [23]: Active | Activity [24]: Active | Activity [25]: Active | ED50 [10]: 0.42 µM | Activity [11]: inactive | ED50 [12]: 56 µmol/kg | Activity [13]: inactive | Activity [26]: Dose-dependent effect | Time [27]: <5 min | Time [28]: 10 min | Activity [29]: Active | Activity [30]: inactive | Time [31]: 3 min | Time [32]: 5 min | Activity [33]: inactive | Activity [34]: inactive | Activity [35]: inactive | Activity [36]: inactive | Activity [37]: inactive | Activity [38]: inactive | Activity [39]: inactive | Activity [40]: inactive
